Patent US20260306642A1, “STAT DEGRADERS AND USES THEREOF” (Recludix Pharma, Inc., priority 2023, published 2026)

Target: T1, pSTAT6 (Homo sapiens, UniProt P42226)
T1 sequence (P42226 1-847): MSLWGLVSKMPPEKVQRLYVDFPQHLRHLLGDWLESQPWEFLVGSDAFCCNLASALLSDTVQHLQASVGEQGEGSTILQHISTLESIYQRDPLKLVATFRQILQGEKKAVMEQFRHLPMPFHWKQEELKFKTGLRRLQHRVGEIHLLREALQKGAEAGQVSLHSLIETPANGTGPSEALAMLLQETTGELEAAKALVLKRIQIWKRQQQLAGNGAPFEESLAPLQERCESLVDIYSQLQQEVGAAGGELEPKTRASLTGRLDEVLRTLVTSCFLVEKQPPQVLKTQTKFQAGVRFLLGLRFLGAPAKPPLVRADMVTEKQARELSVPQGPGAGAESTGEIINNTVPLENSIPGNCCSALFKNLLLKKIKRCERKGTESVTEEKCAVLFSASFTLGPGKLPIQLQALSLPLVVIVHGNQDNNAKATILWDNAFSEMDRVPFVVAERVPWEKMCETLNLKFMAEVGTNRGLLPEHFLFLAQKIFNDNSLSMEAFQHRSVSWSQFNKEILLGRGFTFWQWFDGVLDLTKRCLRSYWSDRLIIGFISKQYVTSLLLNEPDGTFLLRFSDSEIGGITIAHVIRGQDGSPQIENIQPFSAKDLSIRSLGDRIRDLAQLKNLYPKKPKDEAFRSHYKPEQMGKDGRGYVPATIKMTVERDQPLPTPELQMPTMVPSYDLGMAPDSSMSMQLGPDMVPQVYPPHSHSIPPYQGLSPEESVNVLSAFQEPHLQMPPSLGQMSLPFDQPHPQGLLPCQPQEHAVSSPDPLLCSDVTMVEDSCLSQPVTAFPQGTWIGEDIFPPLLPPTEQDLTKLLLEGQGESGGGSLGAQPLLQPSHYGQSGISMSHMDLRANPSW
Test: MSD-pSTAT-PBMC Assay (pSTAT6, IL-4 stimulated)
Format: cell-based
Settings: compound 3 hrs, then 1 ng/mL IL-4 10 min, pY641-STAT6, read-out: pSTAT6 IC50
Excerpt: Cryopreserved Peripheral Blood Mononuclear Cells (PBMC) are from AllCells. Recombinant Human IL-4 and IL-6 are from Peprotech. Mouse monoclonal anti-STAT3 antibody, rabbit monoclonal anti-pY705-STAT3 antibody, rabbit monoclonal Anti-pY641-STAT6 antibody, and lysis buffer are from Cell Signaling Technology (CST). Mouse monoclonal anti-STAT6 antibody is from BioLegend. Assay plates, blocker, and anti-rabbit secondary antibody are from Meso Scale Discovery (MSD).
Cryopreserved PBMCs were thawed out and allowed to recover overnight in IMDM+10% heat-inactivated FBS prior to plating 50,000 (STAT3) or 25,000 (STAT6) cells per well in 96-well U-bottom tissue culture plates. Cells were treated with compound for 3 hrs, then stimulated with 10 ng/mL IL-6 (STAT3) or 1 ng/mL IL-4 (STAT6) for 10 min. Cells were then spun down and washed with ice-cold PBS prior to lysing the cell pellet with 1× lysis buffer (CST) with 1× HALT protease and phosphatase inhibitor cocktail (Thermo). Lysates were transferred to and incubated overnight at 4° C. with shaking in QuickPlex 96-well high bind assay plates (MSD) pre-coated overnight with 30 μL per well of […] mouse monoclonal anti-STAT3 antibody (STAT3) or 2 μg/mL mouse monoclonal anti-STAT6 antibody (STAT6) in 1× PBS, and pre-blocked for 1 hour with 3% Blocker-A (MSD). Captured protein in the assay plates were then washed and probed with 25 μL per well of […] rabbit monoclonal anti-pY705-STAT3 antibody (STAT3) or […] rabbit monoclonal Anti-pY641-STAT6 antibody (STAT6) in 1% Blocker-A for 1 hour at room temperature with shaking, then washed and probed with 25 ul per well of 1 ug/ml Sulfo-TAG Labeled Goat Anti-Rabbit Antibody (MSD) in 1% Blocker-A for 1 hour at room temperature with shaking. Assay plates were then washed and 150 μL of 1× Read Buffer-T (MSD) was added to each well prior to reading on an SQ120 MSD Plate Reader. Assay signal from each sample was subtracted by the signal from unstimulated control wells and normalized to DMSO control wells. IC50 values were calculated using Graph Pad Prism Dose-Response Nonlinear Regression with variable slope. For both pSTAT3 and pSTAT6 A=≤100 nM; B=>100-1000 nM; C=>1000-3000 nM; and D=>3 μM.

| SMILES | IC50 [nM] |
| --- | --- |
| CCCC(=O)SCCOP(=O)(OCCSC(=O)CCC)C(F)(F)c1ccc2sc(C(=O)N[C@H]3CCCC[C@H]4CC[C@@H](C(=O)N5C[C@@H](C#N)[C@H](c6cccc(OCCCCCC#Cc7cccc8c7CN(C7CCC(=O)NC7=O)C8=O)c6)C5)N4C3=O)cc2c1 (relative stereo) [Compound 14, S,S(((((2-(((3S,6S,10aS)-3-((rel-3S,4R)-3-cyano-4-(3-((7-(2-(2,6-dioxopiperidin-3-yl)-1-oxoisoindolin-4-yl)hept-6-yn-1-yl)oxy)phenyl)pyrrolidine-1-carbonyl)-5-oxodecahydropyrrolo[1,2-a]azocin-6-yl)carbamoyl)benzo[b]thiophen-5-yl)difluoromethyl)phosphoryl)bis(oxy))bis(ethane-2,1-diyl)) dibutanethioate] | 100 to 1000 |
| CCCC(=O)SCCOP(=O)(OCCSC(=O)CCC)C(F)(F)c1ccc2sc(C(=O)NC3CCCCC4CCC(C(=O)N5CC(C#N)C(c6cccc(OCCOCCOc7cccc8c7CN(C7CCC(=O)NC7=O)C8=O)c6)C5)N4C3=O)cc2c1 [Compound 15, S,S(((((2-(((3S,6S,10aS)-3-((rel-3S,4R)-3-cyano-4-(3-(2-(2-((2-(2,6-dioxopiperidin-3-yl)-1-oxoisoindolin-4-yl)oxy)ethoxy)ethoxy)phenyl)pyrrolidine-1-carbonyl)-5-oxodecahydropyrrolo[1,2-a]azocin-6-yl)carbamoyl)benzo[b]thiophen-5-yl)difluoromethyl)phosphoryl)bis(oxy))bis(ethane-2,1-diyl)) dibutanethioate] | < 100 |
| CCCC(=O)SCCOP(=O)(OCCSC(=O)CCC)C(F)(F)c1ccc2sc(C(=O)N[C@H]3CCCC[C@H]4CC[C@@H](C(=O)N5C[C@@H](c6ccn(CCCCCOc7ccc(C8CCC(=O)NC8=O)cc7)c(=O)c6)CC56CC6)N4C3=O)cc2c1 (stereo partly drawn) [Compound 18, S,S(((((2-(((3S,6S,10aS)-3-((6R)-6-(1-(5-(4-(2,6-dioxopiperidin-3-yl)phenoxy)pentyl)-2-oxo-1,2-dihydropyridin-4-yl)-4-azaspiro[2.4]heptane-4-carbonyl)-5-oxodecahydropyrrolo[1,2-a]azocin-6-yl)carbamoyl)benzo[b]thiophen-5-yl)difluoromethyl)phosphoryl)bis(oxy))bis(ethane-2,1-diyl)) dibutanethioate] | < 100 |
| CCCC(=O)SCCOP(=O)(OCCSC(=O)CCC)C(F)(F)c1ccc2sc(C(=O)N[C@H]3CCCC[C@H]4CC[C@@H](C(=O)N5C[C@@H](c6ccn(CCOCCOCCOc7cccc8c7CN(C7CCC(=O)NC7=O)C8=O)c(=O)c6)CC56CC6)N4C3=O)cc2c1 (stereo partly drawn) [Compound 26, S,S((((2-(((3S,6S,10aS)-3-((6R)-6-(1-(2-(2-(2-((2-(2,6-dioxopiperidin-3-yl)-1-oxoisoindolin-4-yl)oxy)ethoxy)ethoxy)ethyl)-2-oxo-1,2-dihydropyridin-4-yl)-4-azaspiro[2.4]heptane-4-carbonyl)-5-oxodecahydropyrrolo[1,2-a]azocin-6-yl)carbamoyl)benzo[b]thiophen-5-yl)difluoromethyl)phosphoryl)bis(oxy))bis(ethane-2,1-diyl)) dibutanethioate] | 100 to 1000 |
| CCCC(=O)SCCOP(=O)(OCCSC(=O)CCC)C(F)(F)c1ccc2sc(C(=O)NC3CCCCC4CCC(C(=O)N5CC(C#N)C(c6cccc(OCCCCOc7ccc(C8CCC(=O)NC8=O)cc7)c6)C5)N4C3=O)cc2c1 [Compound 4, trans-S,S(((((2-(((3S,6S,10aS)-3-(3-cyano-4-(3-(4-(4-(2,6-dioxopiperidin-3-yl)phenoxy)butoxy)phenyl)pyrrolidine-1-carbonyl)-5-oxodecahydropyrrolo[1,2-a]azocin-6-yl)carbamoyl)benzo[b]thiophen-5-yl)difluoromethyl)phosphoryl)bis(oxy))bis(ethane-2,1-diyl)) dibutanethioate] | < 100 |
| CCCC(=O)SCCOP(=O)(OCCSC(=O)CCC)C(F)(F)c1ccc2sc(C(=O)N[C@H]3CCCC[C@H]4CC[C@@H](C(=O)N5C[C@@H](c6ccn(CCCCCCC#Cc7cccc8c7CN(C7CCC(=O)NC7=O)C8=O)c(=O)c6)CC56CC6)N4C3=O)cc2c1 (stereo partly drawn) [Compound 6, S,S((((2-(((3S,6S,10aS)-3-((6R)-6-(1-(8-(2-(2,6-dioxopiperidin-3-yl)-1-oxoisoindolin-4-yl)oct-7-yn-1-yl)-2-oxo-1,2-dihydropyridin-4-yl)-4-azaspiro[2.4]heptane-4-carbonyl)-5-oxodecahydropyrrolo[1,2-a]azocin-6-yl)carbamoyl)benzo[b]thiophen-5-yl)difluoromethyl)phosphoryl)bis(oxy))bis(ethane-2,1-diyl)) dibutanethioate] | < 100 |

Same assay, conditions: read-out: pSTAT6 IC50, compound 3 hrs, then 1 ng/mL IL-4 10 min, pY641-STAT6

| SMILES | IC50 [nM] |
| --- | --- |
| CCCC(=O)SCCOP(=O)(OCCSC(=O)CCC)C(F)(F)c1ccc2sc(C(=O)NC3CCCCC4CCC(C(=O)N5CC(C#N)C(c6cccc(N7CCN(c8ccc9c(c8)[nH]c(=O)n9C8CCC(=O)NC8=O)CC7)c6)C5)N4C3=O)cc2c1 [Compound 23, S,S(((((2-(((3S,6S,10aS)-3-((rel-3S,4R)-3-cyano-4-(3-(4-(1-(2,6-dioxopiperidin-3-yl)-2-oxo-2,3-dihydro-1H-benzo[d]imidazol-5-yl)piperazin-1-yl)phenyl)pyrrolidine-1-carbonyl)-5-oxodecahydropyrrolo[1,2-a]azocin-6-yl)carbamoyl)benzo[b]thiophen-5-yl)difluoromethyl)phosphoryl)bis(oxy))bis(ethane-2,1-diyl)) dibutanethioate] | < 100 |
| CCCC(=O)SCCOP(=O)(OCCSC(=O)CCC)C(F)(F)c1ccc2sc(C(=O)N[C@H]3CCCC[C@H]4CC[C@@H](C(=O)N5C[C@@H](c6ccn(C7CCN(c8ccc9c(c8)[nH]c(=O)n9C8CCC(=O)NC8=O)CC7)c(=O)c6)CC56CC6)N4C3=O)cc2c1 (stereo partly drawn) [Compound 25, S,S((((2-(((3S,6S,10aS)-3-((6R)-6-(1-(1-(1-(2,6-dioxopiperidin-3-yl)-2-oxo-2,3-dihydro-1H-benzo[d]imidazol-5-yl)piperidin-4-yl)-2-oxo-1,2-dihydropyridin-4-yl)-4-azaspiro[2.4]heptane-4-carbonyl)-5-oxodecahydropyrrolo[1,2-a]azocin-6-yl)carbamoyl)benzo[b]thiophen-5-yl)difluoromethyl)phosphoryl)bis(oxy))bis(ethane-2,1-diyl)) dibutanethioate] | 100 to 1000 |
